In US20110212968A1, “PHENETHYLAMIDE DERIVATIVES AND THEIR HETEROCYCLIC ANALOGUES” (priority 2008, published 2011):

What was measured:
human orexin-1 receptor = target: T1, human orexin-1 receptor (Homo sapiens, UniProt O43613); assay: Intracellular calcium measurement (FLIPR Tetra), orexin receptor antagonistic activity, OX1; assay type: cell-based; conditions: CHO cells expressing human orexin-1 receptor, 3 nM orexin-A, conditions B
T1 construct: expressed in transfected cells; host or cells: CHO (Chinese hamster ovary) cells, kept under G418 selection
T1 sequence (O43613 1-425): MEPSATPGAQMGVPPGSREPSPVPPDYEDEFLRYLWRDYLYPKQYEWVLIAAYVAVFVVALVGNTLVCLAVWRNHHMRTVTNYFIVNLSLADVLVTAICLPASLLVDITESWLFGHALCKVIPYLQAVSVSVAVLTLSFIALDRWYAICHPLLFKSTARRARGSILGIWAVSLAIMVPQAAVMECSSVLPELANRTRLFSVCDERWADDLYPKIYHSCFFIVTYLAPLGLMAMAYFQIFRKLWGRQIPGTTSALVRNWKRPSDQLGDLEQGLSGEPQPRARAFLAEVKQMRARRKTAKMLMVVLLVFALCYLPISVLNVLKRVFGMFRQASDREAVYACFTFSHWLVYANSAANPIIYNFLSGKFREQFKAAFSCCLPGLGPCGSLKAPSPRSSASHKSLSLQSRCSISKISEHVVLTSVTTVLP
Summary of the method: (§1)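 Recombinant CHO cells expressing human OX1 or OX2, loaded with fluo-4 AM plus probenecid, were preincubated with antagonist 10 min, then stimulated with 3 nM human orexin-A. Peak fluorescence was compared with vehicle; IC50 derived, sometimes normalized to an on-plate reference compound; two pipetting/cell-splitting conditions were used.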

human orexin-2 receptor = target: T2, human orexin-2 receptor (Homo sapiens, UniProt O43614); assay: Intracellular calcium measurement (FLIPR Tetra), orexin receptor antagonistic activity, OX2; assay type: cell-based; conditions: CHO cells expressing human orexin-2 receptor, 3 nM orexin-A, conditions B
T2 construct: expressed in transfected cells; host or cells: CHO (Chinese hamster ovary) cells, kept under G418 selection
T2 sequence (O43614 1-444): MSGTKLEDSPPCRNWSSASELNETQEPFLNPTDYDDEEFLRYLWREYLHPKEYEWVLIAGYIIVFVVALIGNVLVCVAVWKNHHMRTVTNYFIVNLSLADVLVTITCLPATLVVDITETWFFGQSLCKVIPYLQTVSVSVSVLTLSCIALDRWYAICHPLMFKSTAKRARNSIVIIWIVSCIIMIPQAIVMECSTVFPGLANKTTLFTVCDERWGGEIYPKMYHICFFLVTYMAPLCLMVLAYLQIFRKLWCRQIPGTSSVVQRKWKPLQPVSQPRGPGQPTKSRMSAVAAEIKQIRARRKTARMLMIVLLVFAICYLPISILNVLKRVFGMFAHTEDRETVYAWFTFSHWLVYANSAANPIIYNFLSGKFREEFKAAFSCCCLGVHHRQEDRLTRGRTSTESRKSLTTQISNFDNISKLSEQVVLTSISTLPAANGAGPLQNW
Summary of the method: as §1

[1] = normalized (*) using IC50 of on-plate reference compound

IC50 (human orexin-1 receptor)	IC50 (human orexin-2 receptor)	IC50 (human orexin-1 receptor; [1])	IC50 (human orexin-2 receptor; [1])	Structure (SMILES)
7 nM	16 nM	–	–	Cc1cccc(-c2sc(N)nc2C(=O)N(CCc2c[nH]c3ccc(F)cc23)CC2CC2)c1 [Example 232, 2-Amino-5-m-tolyl-thiazole-4-carboxylic acid cyclopropylmethyl-[2-(5-fluoro-1H-indol-3-yl)-ethyl]-amide]
–	–	407 nM	64 nM	Cc1nc(C(=O)N(CCc2c[nH]c3ccc(F)cc23)CC2CC2)c(-c2ccc(C)c(F)c2F)s1 [Example 273, 5-(2,3-Difluoro-4-methyl-phenyl)-2-methyl-thiazole-4-carboxylic acid cyclopropylmethyl-[2-(5-fluoro-1H-indol-3-yl)-ethyl]-amide]
–	–	155 nM	66 nM	Cc1ccc(-c2scnc2C(=O)N(CCc2c[nH]c3ccc(F)cc23)CC2CC2)cc1C [Example 274, 5-(3,4-Dimethyl-phenyl)-thiazole-4-carboxylic acid cyclopropylmethyl-[2-(5-fluoro-1H-indol-3-yl)-ethyl]-amide]
–	–	201 nM	70 nM	COc1nc(C(=O)N(CCc2c[nH]c3ccc(F)cc23)CC2CC2)c(-c2cccc(C)c2)s1 [Example 275, 2-Methoxy-5-m-tolyl-thiazole-4-carboxylic acid cyclopropylmethyl-[2-(5-fluoro-1H-indol-3-yl)-ethyl]-amide]
–	–	5620 nM	283 nM	Cc1cccc(-c2sc(CN(C)C)nc2C(=O)N(CCc2c[nH]c3ccc(F)cc23)CC2CC2)c1 [Example 279, 2-Dimethylaminomethyl-5-m-tolyl-thiazole-4-carboxylic acid cyclopropylmethyl-[2-(5-fluoro-1H-indol-3-yl)-ethyl]-amide]
–	–	2730 nM	322 nM	COC(=O)CN(CCc1c[nH]c2ccc(F)cc12)C(=O)c1nccnc1-c1ccccc1 [Example 286, [[2-(5-Fluoro-1H-indol-3-yl)-ethyl]-(3-phenyl-pyrazine-2-carbonyl)-amino]-acetic acid methyl ester]
–	–	3820 nM	706 nM	Cc1ccc(-c2nccnc2C(=O)N(CCc2c[nH]c3ccc(F)cc23)CC(N)=O)cc1C [Example 294, 3-(3,4-Dimethyl-phenyl)-pyrazine-2-carboxylic acid carbamoylmethyl-[2-(5-fluoro-1H-indol-3-yl)-ethyl]-amide]
–	–	2350 nM	551 nM	COc1ccc(-c2sc(C)nc2C(=O)N(CCc2c[nH]c3ccc(F)cc23)CC(=O)N(C)C)cn1 [Example 303, 5-(6-Methoxy-pyridin-3-yl)-2-methyl-thiazole-4-carboxylic acid dimethylcarbamoylmethyl-[2-(5-fluoro-1H-indol-3-yl)-ethyl]-amide]
–	–	345 nM	20 nM	COc1ccc(-c2sc(C)nc2C(=O)N(CCc2c[nH]c3ccc(F)cc23)CC(F)F)cn1 [Example 307, 5-(6-Methoxy-pyridin-3-yl)-2-methyl-thiazole-4-carboxylic acid (2,2-difluoro-ethyl)-[2-(5-fluoro-1H-indol-3-yl)-ethyl]-amide]
–	–	357 nM	25 nM	COc1ccc(-c2sc(C)nc2C(=O)N(CCO)CCc2c[nH]c3ccc(F)cc23)cn1 [Example 308, 5-(6-Methoxy-pyridin-3-yl)-2-methyl-thiazole-4-carboxylic acid [2-(5-fluoro-1H-indol-3-yl)-ethyl]-(2-hydroxy-ethyl)-amide]
–	–	147 nM	16 nM	CCCN(CCc1c[nH]c2ccc(F)cc12)C(=O)c1ncccc1-c1ccc(OC)nc1 [Example 311]
–	–	346 nM	76 nM	COc1ccc(-c2cccnc2C(=O)N(CCc2c[nH]c3ccc(F)cc23)CC(F)(F)F)cn1 [Example 312]
–	–	5260 nM	526 nM	COc1ccc(-c2cccnc2C(=O)N(CCc2c[nH]c3ccc(F)cc23)CC(N)=O)cn1 [Example 313, 6′-Methoxy-[3,3′]bipyridinyl-2-carboxylic acid carbamoylmethyl-[2-(5-fluoro-1H-indol-3-yl)-ethyl]-amide]
–	–	847 nM	116 nM	COC(=O)CN(CCc1c[nH]c2ccc(F)cc12)C(=O)c1ncccc1-c1ccc(OC)nc1 [Example 315]
–	–	760 nM	162 nM	COc1ccc(-c2cccnc2C(=O)N(CCc2c[nH]c3ccc(F)cc23)CC(F)F)cn1 [Example 317, 6′-Methoxy-[3,3′]bipyridinyl-2-carboxylic acid (2,2-difluoro-ethyl)-[2-(5-fluoro-1H-indol-3-yl)-ethyl]-amide]
–	–	> 5420 nM	848 nM	COc1ccc(-c2cccnc2C(=O)N(CCO)CCc2c[nH]c3ccc(F)cc23)cn1 [Example 318, 6′-Methoxy-[3,3′]bipyridinyl-2-carboxylic acid [2-(5-fluoro-1H-indol-3-yl)-ethyl]-(2-hydroxy-ethyl)-amide]

Continued, compound first:

Structure (SMILES)	IC50 (human orexin-1 receptor)	IC50 (human orexin-2 receptor)	IC50 (human orexin-1 receptor; [1])	IC50 (human orexin-2 receptor; [1])
Cc1cccc(-c2sc(N)nc2C(=O)N(CCc2c[nH]c3cc(F)ccc23)CC2CC2)c1 [Example 233, 2-Amino-5-m-tolyl-thiazole-4-carboxylic acid cyclopropylmethyl-[2-(6-fluoro-1H-indol-3-yl)-ethyl]-amide]	–	–	37 nM	22 nM
Cc1cccc(-c2sc(N)nc2C(=O)N(CCc2c[nH]c3c(F)cccc23)CC2CC2)c1 [Example 234, 2-Amino-5-m-tolyl-thiazole-4-carboxylic acid cyclopropylmethyl-[2-(7-fluoro-1H-indol-3-yl)-ethyl]-amide]	5 nM	16 nM	–	–
COc1ccc(CCN(CC2CC2)C(=O)c2nc(C)sc2-c2ccc(C)c(C)c2)cn1 [Example 254, 5-(3,4-Dimethyl-phenyl)-2-methyl-thiazole-4-carboxylic acid cyclopropylmethyl-[2-(6-methoxy-pyridin-3-yl)-ethyl]-amide]	1770 nM	232 nM	–	–
CN(C)c1cccc(-c2ocnc2C(=O)N(CCc2c[nH]c3ccc(F)cc23)CC2CC2)c1 [Example 261, 5-(3-Dimethylamino-phenyl)-oxazole-4-carboxylic acid cyclopropylmethyl-[2-(5-fluoro-1H-indol-3-yl)-ethyl]-amide]	–	–	576 nM	185 nM
Cc1nc(-c2ccc(Cl)cc2)c(C(=O)N(CCc2c[nH]c3ccc(F)cc23)CC2CC2)s1 [Example 262, 4-(4-Chloro-phenyl)-2-methyl-thiazole-5-carboxylic acid cyclopropylmethyl-[2-(5-fluoro-1H-indol-3-yl)-ethyl]-amide]	–	–	9210 nM	470 nM
Cc1ccc(-c2sc(C3CC3)nc2C(=O)N(CCc2c[nH]c3ccc(F)cc23)CC2CC2)cc1F [Example 276, 2-Cyclopropyl-5-(3-fluoro-4-methyl-phenyl)-thiazole-4-carboxylic acid cyclopropylmethyl-[2-(5-fluoro-1H-indol-3-yl)-ethyl]-amide]	–	–	2260 nM	601 nM
CCCN(CCc1c[nH]c2ccc(F)cc12)C(=O)c1nccnc1-c1ccccc1 [Example 283, 3-Phenyl-pyrazine-2-carboxylic acid [2-(5-fluoro-1H-indol-3-yl)-ethyl]-propyl-amide]	–	–	192 nM	16 nM
CC(C)N(CCc1c[nH]c2ccc(F)cc12)C(=O)c1nccnc1-c1ccccc1 [Example 287, 3-Phenyl-pyrazine-2-carboxylic acid [2-(5-fluoro-1H-indol-3-yl)-ethyl]-isopropyl-amide]	–	–	2440 nM	585 nM
O=C(c1nccnc1-c1ccccc1)N(CCO)CCc1c[nH]c2ccc(F)cc12 [Example 289, 3-Phenyl-pyrazine-2-carboxylic acid [2-(5-fluoro-1H-indol-3-yl)-ethyl]-(2-hydroxy-ethyl)-amide]	–	–	> 4270 nM	627 nM
CCCN(CCc1c[nH]c2ccc(F)cc12)C(=O)c1nccnc1-c1ccc(C)c(C)c1 [Example 292, 3-(3,4-Dimethyl-phenyl)-pyrazine-2-carboxylic acid [2-(5-fluoro-1H-indol-3-yl)-ethyl]-propyl-amide]	–	–	163 nM	10 nM
Cc1ccc(-c2nccnc2C(=O)N(CCc2c[nH]c3ccc(F)cc23)CC(F)F)cc1C [Example 297, 3-(3,4-Dimethyl-phenyl)-pyrazine-2-carboxylic acid (2,2-difluoro-ethyl)-[2-(5-fluoro-1H-indol-3-yl)-ethyl]-amide]	–	–	702 nM	136 nM
